In patent US20230270678A1, “PHARMACEUTICAL COMPOSITIONS FOR IMPROVED DELIVERY OF THERAPEUTIC LIPOPHILIC ACTIVES” (KARNAK TECHNOLOGIES, LLC, priority 2020, published 2023) one finds MIC data, which are given here for one molecule.

The subject of the assay is Pseudomonas aeruginosa. Description: MIC (minimum inhibition concentration) against P. aeruginosa. The format is cell-based. The protocol:
Compositions with clarithromycin were prepared by cold physical process. Powder clarithromycin compositions were dissolved in water to obtaining nanoemulsion. The control free clarithromycin was dissolved in 1% DMSO. Emulsion dried using lyophilization. Samples were tested in three independent experiments, with triplicate in each experiment. Particle size was measured using DLS. MIC data (minimum inhibition concentrations) of the formulated and free antibiotic were compared.

As to `CC[C@H]1OC(=O)[C@H](C)[C@@H](O[C@H]2C[C@@](C)(OC)[C@@H](O)[C@H](C)O2)[C@H](C)[C@@H](O[C@@H]2O[C@H](C)C[C@H](N(C)C)[C@H]2O)[C@](C)(OC)C[C@@H](C)C(=O)[C@H](C)[C@@H](O)[C@]1(C)O` [Free clarithromycin, clarithromycin], the MIC was determined as 0.0625%.
